Legend:
hPPARα = molecular target: T1, hPPARα (Homo sapiens, UniProt Q07869); test: Determination of hPPARα activity (GAL4 luciferase reporter transactivation in HEK-293 cells); format: cell-based; details: compound at 50 μM, HEK-293 cells transfected with GAL4-hPPARα LBD
T1 construct: expressed in transfected cells; host or cells: HEK-293
T1 sequence (Q07869 239-466 limits assumed): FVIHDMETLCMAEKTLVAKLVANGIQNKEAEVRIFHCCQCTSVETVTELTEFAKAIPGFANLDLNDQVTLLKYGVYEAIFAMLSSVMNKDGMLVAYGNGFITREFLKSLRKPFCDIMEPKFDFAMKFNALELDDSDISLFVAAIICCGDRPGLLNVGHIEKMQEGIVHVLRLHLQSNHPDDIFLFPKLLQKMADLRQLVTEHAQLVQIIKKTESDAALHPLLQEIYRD
Experimental: Ligand binding domain of hPPARα was fused to DNA binding domain of Yeast transcription factor GAL4 in eucaryotic expression vector. Using superfect (Qiagen, Germany) as transfecting reagent HEK-293 cells were transfected with this plasmid and a reporter plasmid harboring the luciferase gene driven by a GAL4 specific promoter. Compound was added at different concentrations after 42 hrs of transfection and incubated overnight. Luciferase activity as a function of compound binding/activation capacity of PPARα was measured using Packard Luclite kit (Packard, USA) in Top Count (Ivan Sadowski, Brendan Bell, Peter Broag and Melvyn Hollis. Gene. 1992. 118: 137-141; Superfect Transfection Reagent Handbook. February 1997. Qiagen, Germany).

hPPARγ1 = molecular target: T2, hPPARγ1 (Homo sapiens, UniProt P37231); test: Determination of hPPARγ activity (GAL4 luciferase reporter transactivation in HEK-293 cells); format: cell-based; details: compound at 1 μM, HEK-293 cells transfected with GAL4-hPPARγ1 LBD
T2 construct: expressed in transfected cells; host or cells: HEK-293
T2 sequence (P37231 238-503 limits assumed): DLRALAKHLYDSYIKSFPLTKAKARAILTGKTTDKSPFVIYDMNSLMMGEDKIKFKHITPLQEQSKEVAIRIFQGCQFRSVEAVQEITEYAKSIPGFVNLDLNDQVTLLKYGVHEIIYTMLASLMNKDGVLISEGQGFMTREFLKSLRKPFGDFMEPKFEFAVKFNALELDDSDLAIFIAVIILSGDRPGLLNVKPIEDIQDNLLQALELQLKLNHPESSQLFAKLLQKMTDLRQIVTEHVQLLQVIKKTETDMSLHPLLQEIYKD
Experimental: Ligand binding domain of hPPARγ1 was fused to DNA binding domain of Yeast transcription factor GAL4 in eucaryotic expression vector. Using lipofectamine (Gibco BRL, USA) as transfecting reagent HEK-293 cells were transfected with this plasmid and a reporter plasmid harboring the luciferase gene driven by a GAL4 specific promoter. Compound was added at 1 μM concentration after 48 hrs of transfection and incubated overnight. Luciferase activity as a function of drug binding/activation capacity of PPARγ1 was measured using Packard Luclite kit (Packard, USA) in Packard Top Count (Ivan Sadowski, Brendan Bell, Peter Broag and Melvyn Hollis. Gene. 1992. 118: 137-141; Guide to Eukaryotic Transfections with Cationic Lipid Reagents. Life Technologies, GIBCO BRL, USA).

Swiss albino mice = test: Triglyceride lowering activity in Swiss albino mice; format: in vivo; details: 3 mg/kg/day oral for 6 days
Experimental: Male Swiss albino mice (SAM) were obtained from NIN and housed in DRF animal house. All these animals were maintained under 12 hour light and dark cycle at 25±1° C. Animals were given standard laboratory chow SIN, Hyderabad, India) and water, ad libitun. SAM of 20-25 g body weight range and Guinea pigs of 500-700 g body weight range were used (Oliver, P., Plancke, M. O., Marzin, D., Clavey, V., Sauzieres, J and Fruchart, J. C. Effects of fenofibrate, gemfibrozil and nicotinic acid on plasma lipoprotein levels in normal and hyperlipidemic mice. Atherosclerosis. 1988. 70:107-114).
The test compounds were administered orally to Swiss albino mice at 0.3 to 30 mg/kg/day dose for 6 days. Control mice were treated with vehicle (0.25% Carboxymethylcellulose; dose 10 ml/kg). The test compounds were administered orally to Guinea pigs at 0.3 to 30 mg/kg/day dose for 6 days. Control animals were treated with vehicle (0.25% Carboxymethylcellulose; dose 5 ml/kg).
The blood samples were collected in fed state 1 hour after drug administration on 0 and 6 day of treatment. The blood was collected from the retro-orbital sinus through heparinised capillary in EDTA containing tubes. After centrifugation, plasma sample was separated for triglyceride and total cholesterol (Wieland, O. Methods of Enzymatic analysis. Bergermeyer, H. O., Ed., 1963. 211-214; Trinder, P. Ann. Clin. Biochem. 1969. 6: 24-27). Measurement of plasma triglyceride, total cholesterol and HDL were done using commercial kits (Dr. Reddy's Diagnostic Division, Hyderabad, India).
(§1) 1. Percent reduction in Blood sugar/triglycerides/total cholesterol were calculated according to the formula: [formula]

C57BL/KsJ-db/db mice = test: Blood glucose and triglyceride lowering activity in db/db mice; format: in vivo; details: 3 mg/kg oral gavage daily for 6 days, plasma 1 h after dose on day 6
Excerpt: Mutation in colonies of laboratory animals and different sensitivities to dietary regimens have made the development of animal models with non-insulin dependent diabetes and hyperlipidemia associated with obesity and insulin resistance possible. Genetic models such as db/db and ob/ob (Diabetes, (1982) 31(1): 1-6) mice and zucker fa/fa rats have been developed by the various laboratories for understanding the pathophysiology of disease and testing the efficacy of new antidiabetic compounds (Diabetes, (1983) 32: 830-838; Annu. Rep. Sankyo Res. Lab. (1994). 46: 1-57). The homozygous animals, C57 BL/KsJ-db/db mice developed by Jackson Laboratory, US, are obese, hyperglycemic, hyperinsulinemic and insulin resistant (J. Clin. Invest., (1990) 85: 962-967), whereas heterozygous are lean and normoglycemic. In db/db model, mouse progressively develops insulinopenia with age, a feature commonly observed in late stages of human type II diabetes when blood sugar levels are insufficiently controlled. The state of pancreas and its course vary according to the models. Since this model resembles that of type II diabetes mellitus, the compounds of the present invention were tested for blood sugar and triglycerides lowering activities.
Male C57BL/KsJ-db/db mice of 8 to 14 weeks age, having body weight range of 35 to 60 grams, bred at Dr. Reddy's Research Foundation (DRF) animal house, were used in the experiment. The mice were provided with standard feed (National Institute of Nutrition (NIN), Hyderabad, India) and acidified water, ad libitum. The animals having more than 350 mg/dl blood sugar were used for testing. The number of animals in each group was 4.
Test compounds were suspended on 0.25% carboxymethyl cellulose and administered to test group at a dose of 0.001 mg to 30 mg/kg through oral gavage daily for 6 days. The control group received vehicle (dose 10 ml/kg). On 6th day the blood samples were collected one hour after administration of test compounds/vehicle for assessing the biological activity.
The random blood sugar and triglyceride levels were measured by collecting blood (100 μl) through orbital sinus, using heparinised capillary in tubes containing EDTA which was centrifuged to obtain plasma. The plasma glucose and triglyceride levels were measured spectrometrically, by glucose oxidase and glycerol-3-PO4 oxidase/peroxidase enzyme (Dr. Reddy's Lab. Diagnostic Division Kits, Hyderabad, India) methods respectively.
The blood sugar and triglycerides lowering activities of the test compound was calculated according to the formula given below.
as §1

[1] = tested on: hypercholesterolemic male Sprague Dawley rats; test: Cholesterol lowering activity in hypercholesterolemic male Sprague Dawley rats; format: in vivo; details: 3 mg/kg/day oral for 3 days
Experimental: Male Sprague Dawley rats (NIN stock) were bred in DRF animal house. Animals were maintained under 12 hour light and dark cycle at 25±1° C. Rats of 180-200 gram body weight range were used for the experiment. Animals were made hypercholesterolemic by feeding 2% cholesterol and 1% sodium cholate mixed with standard laboratory chow [National Institute of Nutrition (NMN), Hyderabad, India] for 6 days. Throughout the experimental period the animals were maintained on the same diet (Petit, D., Bonnefis, M. T., Rey, C and Infante, R. Effects of ciprofibrate on liver lipids and lipoprotein synthesis in normo- and hyperlipidemic rats. Atherosclerosis. 1988. 74: 215-225).
The test compounds were administered orally at a dose 0.1 to 30 mg/kg/day for 3 days. Control group was treated with vehicle alone (0.25% Carboxymethylcellulose; dose 10 ml/kg).
The blood samples were collected in fed state 1 hour after drug administration on 0 and 3 day of compound treatment. The blood was collected from the retro-orbital sinus through heparinised capillary in EDTA containing tubes. After centrifugation, plasma sample was separated for total cholesterol, HDL and triglyceride estimations. Measurement of plasma triglyceride, total cholesterol and HDL were done using commercial kits (Dr. Reddy's Laboratory, Diagnostic Division, India). LDL and VLDL cholesterol were calculated from the data obtained for total cholesterol, HDL and triglyceride. The reduction of various parameters examined are calculated according to the formula given below.
as §1
2. LDL and VLDL cholesterol levels were calculated according to the formula: [formula]
VLDL cholesterol in mg/dl=[Total cholesterol−HDL cholesterol−LDL cholesterol] mg/dl.

SMILES	PPARα activity (hPPARα)	PPARγ activity (hPPARγ1)	Triglyceride (%)↓ (Swiss albino mice) [%]	Reduction in Blood Glucose Level (%) (C57BL/KsJ-db/db mice)	Triglyceride Lowering (%) (C57BL/KsJ-db/db mice)	also measured
CCCc1nn(C)c2c(=O)n(CCOc3ccc(CC(OCC)C(=O)OCC)cc3)c(CC)nc12 (stereo not shown) [Example 1]	5.00	11.0	45	–	–	–
CCCc1nn(C)c2c(=O)n(CCOc3ccc(CC(Oc4ccccc4)C(=O)O)cc3)c(CC)nc12 (stereo not shown) [Example 10, 3-[4-[2-(5-Ethyl-1-methyl-7-oxo-3-propyl-6,7-dihydro-1H-pyrazolo[4,3-d]pyrimidin-6-yl)ethoxy]phenyl]-2-phenoxypropanoic Acid]	–	–	–	33	35	–
CCCc1nn(C)c2c(=O)n(CCOc3ccc(CC(OCC)C(=O)O)cc3)c(C)nc12 (stereo not shown) [Example 4, 3-[4-[2-(1,5-Dimethyl-7-oxo-3-propyl-6,7-dihydro-1H-pyrazolo[4,3-d]pyrimidin-6-yl)ethoxy]phenyl]-2-ethoxypropanoic Acid]	8.32	14.6	66	42	17	–
CCCc1nn(C)c2c(=O)n(CCOc3ccc(CC(OCC)C(=O)OCC)cc3)c(CCC)nc12 (stereo not shown) [Example 13, Ethyl 3-[4-[2-(3,5-Dipropyl-1-methyl-7-oxo-6,7-dihydro-1H-pyrazolo[4,3-d]pyrimidin-6-yl)ethoxy]phenyl]-2-ethoxypropanoate]	–	–	25	–	–	–
CCCc1nn(C)c2c(=O)n(CCOc3ccc(C[C@@H](OCC)C(=O)N[C@H](CO)c4ccccc4)cc3)c(CC)nc12 [Example 18A, [2R, N(1S)]-2-Ethoxy-3-[4-[2-(5-ethyl-1-methyl-7-oxo-3-propyl-6,7-dihydro-1H-pyrazolo[4,3-d]pyrimidin-6-y]ethoxy]phenyl]-N-(2-hydroxy-1-phenylethyl) Propanamide]	–	–	–	–	–	melting point: 138 to 139 °C
CCCc1nn(C)c2c(=O)n(CCOc3ccc(CC(OCC)C(=O)OCC)cc3)c(C)nc12 (stereo not shown) [Example 3, Ethyl 3-[4-[2-(1,5-Dimethyl-7-oxo-3-propyl-6,7-dihydro-1H-pyrazolo[4,3-d]pyrimidin-6-yl)ethoxy]phenyl]-2-ethoxypropanoate]	6.9	19.0	61	58	23	–
CCCc1nn(C)c2c(=O)n(CCOc3ccc(CC(OCC)C(=O)O)cc3)c(CC)nc12 (stereo not shown) [Example 2]	–	–	–	–	–	HDL ↓ [1]: 164; Total Cholesterol (%)↓ [1]: 60%; Triglyceride (%)↓ [1]: 70%; LDL (%)↓ ([1]; LDL calculated from total cholesterol, HDL and triglyceride): 72%; VLDL (%)↓ ([1]; VLDL calculated from total cholesterol, HDL and LDL): 71%

From patent publication US6444816B1, “Fused 7-oxo-pyrimidinyl compounds, preparation, composition and use thereof” (Dr. Reddy's Research Foundation, priority 1997, dated 2002)
